What was measured:
[1] = system: antibodies in human sera
[2] = system: guinea pigs; details: guinea pig, in vivo
Protocol: (§1) Sera from all bleedings were analysed by passive cutaneous anaphylaxis reaction. Arthus reaction in rabbits and active anaphylaxis reaction in guinea pigs were performed too.

[3] = system: humans; details: in vivo, iv
[4] = system: patients; details: human, in vivo; cited from earlier work
[5] = system: Mice; details: mouse, in vivo
Protocol: as §1

[6] = system: antibodies in human sera; details: cited from earlier work
[7] = system: Rats; details: rat, in vivo; cited from earlier work
[8] = system: Rats; details: rat, in vivo
[9] = system: Rabbits; details: rabbit, in vivo
Protocol: as §1

[10] = system: Mice; details: mouse, in vivo; remark: listed apart in the source
[11] = system: Mice; details: mouse, in vivo; cited from earlier work

Dextran
sera positive in passive cutaneous anaphylaxis reaction [1]: Three sera gave positive a reaction
antibodies detectable / immunogenicity [2]: not immunogenic
antibody production [3]: do not lead to antibody production
renal lesion or anaphylactic shock [4]: 6 - 8%
circulating antibodies [5]: circulating antibodies were detected
human sera contain reacting antibodies; anaphylactic reaction after infusion [6]: human sera contain Dextran reacting antibodies of varying types
anaphylactoid reaction [7]: edema and erythema of paws, ears and snout
anaphylactoid purpura [8]: anaphylactoid purpura appeared in the paws, ears and tail
anaphylactoid inflammation ([8]; iv): acute, serous anaphylactoid inflammation in the ears, snout and tail
antibodies detectable / immunogenicity [9]: not immunogenic
anaphylactoid purpura [10]: anaphylactoid purpura appeared in the paws, ears and tail
anaphylactoid inflammation ([10]; iv): acute, serous anaphylactoid inflammation in the ears, snout and tail
anaphylactoid reaction [11]: edema and erythema of paws, ears and snout
